# Measurements: article PMC6486817 (The Journal of organic chemistry, 2018)
# Molecular target: butyrylcholinesterase (BuChE)
# Assay: modified Ellman photometric anti-cholinesterase assay
# Assay type: biochemical
compound,measurement,value
"CCC[C@H](O)CCCCCC[C@H]1CCC[C@@H]2N[C@H](C)[C@H](OC(=O)/C=C/SC)C[C@H]12 [compound 1, lepadin I]",IC50,3.1 µM
